Among the test systems are Bacillus cereus; Escherichia coli; Staphylococcus aureus.
What all share (test): ≥ marks a high value that may be exact or a test limit, other limits are often not marked, values filed in µg/mL are converted to µM

Values after ≈ are worked out from the molar mass of the structure shown.

The MIC is the least concentration at which growth counts as inhibited.

For the compound `CC(C)C[C@H](NC(=O)[C@@H](N)Cc1ccccc1)C(=O)NCC(=O)N[C@H](C(=O)N[C@H](C(=O)N[C@@H](Cc1ccccc1)C(=O)N[C@@H](CCCCN)C(=O)N[C@@H](CCCCN)C(=O)N[C@@H](C)C(=O)N[C@@H](CO)C(=O)N[C@@H](CCCCN)C(=O)N[C@H](C(=O)N[C@@H](Cc1ccccc1)C(=O)N1CCC[C@H]1C(=O)N[C@@H](C)C(=O)N[C@H](C(=O)N[C@@H](Cc1ccccc1)C(=O)N[C@@H](CCCCN)C(=O)N[C@@H](CCCCN)C(=O)N[C@H](C(=O)O)C(C)C)C(C)C)C(C)C)C(C)C)C(C)C` [FLGVVFKKASKVFPAVFKKV], the MIC against Bacillus cereus is no less than 114 µM; with Escherichia coli it was 114 µM (≈ 256 µg/mL); in the test on Staphylococcus aureus, greater than 114 µM.

As to `CC(C)C[C@H](NC(=O)[C@@H](N)Cc1ccccc1)C(=O)NCC(=O)N[C@H](C(=O)N[C@H](C(=O)N[C@@H](Cc1ccccc1)C(=O)N[C@@H](CCCCN)C(=O)N[C@@H](CCCCN)C(=O)N[C@@H](C)C(=O)N[C@@H](CO)C(=O)N[C@@H](CCCCN)C(=O)N[C@H](C(=O)N[C@@H](Cc1ccccc1)C(=O)N[C@@H](CCCCN)C(=O)N[C@@H](C)C(=O)N[C@H](C(=O)N[C@@H](Cc1ccccc1)C(=O)NCC(=O)N[C@@H](CCCCN)C(=O)N[C@H](C(=O)O)C(C)C)C(C)C)C(C)C)C(C)C)C(C)C` [FLGVVFKKASKVFKAVFGKV], the results for the MIC with Bacillus cereus, against Escherichia coli and in the test with Staphylococcus aureus were 14.5 µM (≈ 32 µg/mL), 14.5 µM (≈ 32 µg/mL) and 116 µM (≈ 256 µg/mL), respectively.

As for `CC(C)[C@H](NC(=O)[C@H](Cc1ccccc1)NC(=O)[C@@H](NC(=O)[C@@H](NC(=O)[C@@H](NC(=O)[C@H](CCCCN)NC(=O)[C@H](C)NC(=O)[C@@H](N)[C@@H](C)O)C(C)C)C(C)C)C(C)C)C(=O)N[C@@H](CO)C(=O)N[C@@H](Cc1ccccc1)C(=O)N[C@@H](CO)C(=O)N[C@@H](Cc1ccc(O)cc1)C(=O)N[C@H](C(=O)N[C@H](C(=O)N1CCC[C@H]1C(=O)N[C@@H](CCCCN)C(=O)N[C@@H](CCCCN)C(=O)N[C@@H](CCCN=C(N)N)C(=O)N[C@@H](C)C(=O)N[C@@H](CS)C(=O)O)C(C)C)C(C)C` [TAKVVVFVSFSYVVPKKRAC], the MIC against Bacillus cereus is no less than 115 µM; against Escherichia coli, greater than 115 µM.

As to `CC[C@H](C)[C@H](NC(=O)[C@H](CCCCN)NC(=O)CNC(=O)[C@@H](NC(=O)[C@H](C)NC(=O)[C@H](CO)NC(=O)[C@@H](N)CC(C)C)C(C)C)C(=O)N[C@@H](C)C(=O)N[C@@H](CO)C(=O)N[C@@H](CCCCN)C(=O)N[C@H](C(=O)N[C@H](C(=O)N1CCC[C@H]1C(=O)N[C@@H](CO)C(=O)N[C@H](C(=O)N[C@H](C(=O)NCC(=O)N[C@@H](C)C(=O)N[C@@H](Cc1ccccc1)C(=O)N[C@@H](CCCCN)C(=O)O)[C@@H](C)CC)C(C)C)C(C)C)C(C)C` [LSAVGKIASKVVPSVIGAFK], the minimum inhibitory concentration (MIC) against Bacillus cereus is no less than 130 µM; against Escherichia coli it was greater than 130 µM.

For the compound `CC[C@H](C)[C@H](NC(=O)CNC(=O)[C@@H](NC(=O)[C@H](CCCCN)NC(=O)[C@H](C)NC(=O)[C@@H](NC(=O)[C@H](C)NC(=O)[C@H](CO)NC(=O)[C@H](CO)NC(=O)[C@H](Cc1ccccc1)NC(=O)[C@H](CC(C)C)NC(=O)[C@@H](NC(=O)[C@@H]1CCCN1C(=O)[C@@H](N)CC(C)C)C(C)C)[C@@H](C)CC)C(C)C)C(=O)N[C@@H](CCCCN)C(=O)N[C@@H](CC(C)C)C(=O)NCC(=O)N[C@@H](C)C(=O)N[C@@H](CCCCN)C(=O)N[C@H](C(=O)O)C(C)C` [LPVLFSSAIAKVGIKLGAKV], the minimum inhibitory concentration (MIC) is no less than 127 µM against Bacillus cereus and greater than 127 µM against Escherichia coli.

Turning to `CC[C@H](C)[C@H](NC(=O)[C@H](CCSC)NC(=O)[C@H](CO)NC(=O)[C@H](Cc1ccccc1)NC(=O)[C@@H](NC(=O)[C@H](CO)NC(=O)[C@@H]1CCCN1C(=O)[C@@H](NC(=O)[C@@H](NC(=O)[C@H](CCCCN)NC(=O)[C@H](CO)NC(=O)[C@H](C)NC(=O)[C@H](CC(C)C)NC(=O)[C@H](CCCCN)NC(=O)CNC(=O)[C@@H](NC(=O)[C@@H](NC(=O)[C@@H]1CCCN1)C(C)C)[C@@H](C)CC)C(C)C)C(C)C)C(C)C)C(=O)N[C@@H](CCCCN)C(=O)N[C@@H](CCCN=C(N)N)C(=O)O` [PVIGKLASKVVPSVFSMIKR], the figures for the minimal inhibitory concentration (MIC) in the test on Bacillus cereus and in the test on Escherichia coli were no less than 119 µM and greater than 119 µM, respectively.
